Source: patent publication US9896440B2, “Aryl substituted heterocyclyl sulfones” (GRÜNENTHAL GMBH, priority 2014, dated 2018)

Biological target: T1, Human CaV2.2 channels (Homo sapiens, UniProt Q00975)
T1 construct: expressed in transfected cells; Kir2.3 also stably co-expressed
Experiment: Fluorescence assay for CaV2.2 channels using potassium depolarization to induce channel opening (FLIPR, Fluo 4)
Type: cell-based
Details: 30 mM KCl assay buffer (inactivated channel state), HEK293 cells; for inhibition at 3 µM: HEK293, 3 μM test compound, read-out: Activity Category: %-Inhib (CaV2.2) @3 μM @30 mM KCl; for Activity Category: %-Inhib (CaV2.2) @3 μM @30 mM KCl: 3 μM test compound
Outline: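 HEK293 cells stably co-expressing human CaV2.2 with α2δ and β subunits plus Kir2.3, Fluo-4 loaded; compounds preincubated 15 min at 25 °C in 1 mM or 30 mM KCl buffer (inactivated state), pH 7.4. Depolarized by KCl addition; baseline-normalized peak fluorescence (ex 480/em 535 nm) gave inhibition.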

T1 sequence (Q00975 whole entry): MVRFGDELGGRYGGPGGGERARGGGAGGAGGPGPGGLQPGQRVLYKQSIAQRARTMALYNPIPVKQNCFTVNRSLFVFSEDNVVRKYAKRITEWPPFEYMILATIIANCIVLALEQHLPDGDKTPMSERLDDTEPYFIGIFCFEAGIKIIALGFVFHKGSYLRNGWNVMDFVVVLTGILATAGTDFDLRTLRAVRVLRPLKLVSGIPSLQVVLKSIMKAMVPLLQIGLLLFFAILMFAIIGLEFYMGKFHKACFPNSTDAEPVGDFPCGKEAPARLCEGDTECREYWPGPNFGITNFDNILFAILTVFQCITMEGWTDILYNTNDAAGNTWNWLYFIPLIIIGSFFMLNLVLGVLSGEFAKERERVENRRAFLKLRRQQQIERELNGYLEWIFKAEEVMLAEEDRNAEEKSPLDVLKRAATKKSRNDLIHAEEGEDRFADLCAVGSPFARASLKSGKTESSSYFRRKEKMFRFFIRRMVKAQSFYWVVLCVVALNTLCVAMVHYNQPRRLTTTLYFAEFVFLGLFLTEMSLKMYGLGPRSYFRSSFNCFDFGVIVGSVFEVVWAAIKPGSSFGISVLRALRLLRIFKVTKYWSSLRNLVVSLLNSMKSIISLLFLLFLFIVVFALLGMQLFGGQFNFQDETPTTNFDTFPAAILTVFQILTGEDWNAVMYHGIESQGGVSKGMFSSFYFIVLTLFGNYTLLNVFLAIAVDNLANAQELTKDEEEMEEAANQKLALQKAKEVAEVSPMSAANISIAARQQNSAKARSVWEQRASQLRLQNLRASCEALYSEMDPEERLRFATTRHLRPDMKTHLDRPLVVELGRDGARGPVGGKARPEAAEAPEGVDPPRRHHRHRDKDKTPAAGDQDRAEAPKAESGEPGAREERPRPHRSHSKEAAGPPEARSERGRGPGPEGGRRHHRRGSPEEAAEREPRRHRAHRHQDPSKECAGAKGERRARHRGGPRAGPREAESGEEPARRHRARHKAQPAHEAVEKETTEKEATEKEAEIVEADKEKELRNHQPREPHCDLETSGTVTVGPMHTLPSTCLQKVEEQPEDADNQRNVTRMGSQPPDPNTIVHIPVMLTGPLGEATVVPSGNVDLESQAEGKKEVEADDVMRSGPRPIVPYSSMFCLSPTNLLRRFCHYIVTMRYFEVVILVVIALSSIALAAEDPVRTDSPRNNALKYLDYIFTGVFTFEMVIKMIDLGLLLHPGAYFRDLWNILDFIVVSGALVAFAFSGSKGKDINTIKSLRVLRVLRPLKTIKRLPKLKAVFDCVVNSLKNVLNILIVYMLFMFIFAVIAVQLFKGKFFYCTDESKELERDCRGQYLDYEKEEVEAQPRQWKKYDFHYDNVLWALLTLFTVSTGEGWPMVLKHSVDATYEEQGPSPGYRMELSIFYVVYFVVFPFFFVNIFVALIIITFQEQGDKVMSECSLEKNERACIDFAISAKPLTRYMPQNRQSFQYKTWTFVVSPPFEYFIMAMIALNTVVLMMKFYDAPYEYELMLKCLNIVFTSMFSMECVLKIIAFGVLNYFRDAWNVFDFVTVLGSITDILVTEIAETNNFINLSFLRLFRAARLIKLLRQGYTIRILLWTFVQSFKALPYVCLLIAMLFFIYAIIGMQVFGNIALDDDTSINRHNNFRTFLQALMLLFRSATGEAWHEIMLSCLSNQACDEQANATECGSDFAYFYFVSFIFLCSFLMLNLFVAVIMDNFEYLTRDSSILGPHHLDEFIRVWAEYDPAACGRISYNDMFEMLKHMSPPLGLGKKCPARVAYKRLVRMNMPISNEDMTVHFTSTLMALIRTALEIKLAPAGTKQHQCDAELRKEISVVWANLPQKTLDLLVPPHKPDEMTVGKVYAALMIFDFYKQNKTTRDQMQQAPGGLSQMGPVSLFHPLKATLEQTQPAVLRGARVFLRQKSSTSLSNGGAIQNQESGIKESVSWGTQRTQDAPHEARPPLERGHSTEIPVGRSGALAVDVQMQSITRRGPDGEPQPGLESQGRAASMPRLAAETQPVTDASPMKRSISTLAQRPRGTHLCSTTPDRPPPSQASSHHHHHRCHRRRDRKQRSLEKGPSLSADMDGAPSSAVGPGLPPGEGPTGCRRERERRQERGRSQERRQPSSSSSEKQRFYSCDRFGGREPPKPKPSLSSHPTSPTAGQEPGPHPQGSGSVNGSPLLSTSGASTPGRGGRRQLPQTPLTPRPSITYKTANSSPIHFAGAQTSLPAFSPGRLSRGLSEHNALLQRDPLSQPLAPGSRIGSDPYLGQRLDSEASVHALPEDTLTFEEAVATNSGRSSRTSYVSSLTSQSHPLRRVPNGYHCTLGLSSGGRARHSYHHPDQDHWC

Structure (SMILES) | inhibition at 3 µM [%] | Activity Category: %-Inhib (CaV2.2) @3 μM @30 mM KCl
Cc1ccc(C2CC(C)(S(=O)(=O)c3cccc(C(F)(F)F)c3)CCO2)cc1S(C)(=O)=O (stereo not shown) [SC-210, 4-Methyl-2-(4-methyl-3-methylsulfonyl-phenyl)-4-[[3-(trifluoromethyl)phenyl]sulfonyl]-tetrahydro-pyran] | > 95 | 
CC1(S(=O)(=O)c2cccc(C(F)(F)F)c2)CCOC(c2cc(F)cc(S(C)(=O)=O)c2)C1 (stereo not shown) [SC-296, 2-(3-Fluoro-5-methylsulfonyl-phenyl)-4-methyl-4-[[3-(trifluoromethyl)phenyl]sulfonyl]-tetrahydro-pyran] | 75 to 95 | 
CC1(S(=O)(=O)c2cccc(C(F)(F)F)c2)COC(c2ccc(Cl)cc2)C1 (stereo not shown) [SC-101, 2-(4-Chlorophenyl)-4-methyl-4-[[3-(trifluoromethyl)phenyl]sulfonyl]-tetrahydro-furan] |  | A (%-Inhibition >95%)
CC1(S(=O)(=O)c2cccc(C(F)(F)F)c2)CCOC(c2ccc(S(C)(=O)=O)c(C#N)c2)C1 (stereo not shown) [SC-267, 2-Methylsulfonyl-5-[4-methyl-4-[[3-(trifluoromethyl)phenyl]sulfonyl]-tetrahydro-pyran-2-yl]-benzonitrile] | > 95 | 
Cc1nc2cc(C3CC(C)(S(=O)(=O)c4cccc(C(F)(F)F)c4)CCO3)ccc2o1 (stereo not shown) [SC-279, 2-Methyl-5-[4-methyl-4-[[3-(trifluoromethyl)phenyl]sulfonyl]-tetrahydro-pyran-2-yl]-benzooxazole] | 75 to 95 | 
CC1(S(=O)(=O)c2cccc(C(F)(F)F)c2)CCOC(c2ccc(S(C)(=O)=O)cc2C#N)C1 (stereo not shown) [SC-276, 5-Methylsulfonyl-2-[4-methyl-4-[[3-(trifluoromethyl)phenyl]sulfonyl]-tetrahydro-pyran-2-yl]-benzonitrile] |  | A (%-Inhibition >95%)
CC1(S(=O)(=O)c2cccc(C(F)(F)F)c2)CCOC(c2ccc(S(C)(=O)=O)c(C#N)c2)C1 (stereo not shown) [SC-268, 2-Methylsulfonyl-5-[4-methyl-4-[[3-(trifluoromethyl)phenyl]sulfonyl]-tetrahydro-pyran-2-yl]-benzonitrile] |  | B (%-Inhibition >75% up to ≦95%)
C[S+]([O-])c1ccc(C2CC(C)(S(=O)(=O)c3cccc(C(F)(F)F)c3)CCO2)c(F)c1 (stereo not shown) [SC-283, 2-[2-Fluoro-4-(methylsulfinyl)-phenyl]-4-methyl-4-[[3-(trifluoromethyl)phenyl]sulfonyl]-tetrahydro-pyran] |  | B (%-Inhibition >75% up to ≦95%)
CC1(S(=O)(=O)c2cccc(C(F)(F)F)c2)CCOC(c2ccc(Cl)cc2S(C)(=O)=O)C1 (stereo not shown) [SC-115, 2-(4-Chloro-2-methylsulfonyl-phenyl)-4-methyl-4-[[3-(trifluoromethyl)phenyl]sulfonyl]-tetrahydro-pyran] |  | A (%-Inhibition >95%)
CC1(S(=O)(=O)c2cccc(C(F)(F)F)c2)CCOC(c2ccc(Cl)c(S(C)(=O)=O)c2)C1 (stereo not shown) [SC-237, 2-(4-Chloro-3-methylsulfonyl-phenyl)-4-methyl-4-[[3-(trifluoromethyl)phenyl]sulfonyl]-tetrahydro-pyran] | > 95 | 
CC1(S(=O)(=O)c2cccc(C(F)(F)F)c2)CCOC(c2cccc(S(C)(=O)=O)c2)C1 (stereo not shown) [SC-220, 4-Methyl-2-(3-methylsulfonyl-phenyl)-4-[[3-(trifluoromethyl)phenyl]sulfonyl]-tetrahydro-pyran] | 75 to 95 | 
CC1(S(=O)(=O)c2cc(F)cc(C(F)(F)F)c2)CCOC(c2ccc(S(C)(=O)=O)cc2)C1 (single isomer, unassigned) [SC-142, 4-[[3-Fluoro-5-(trifluoromethyl)-phenyl]sulfonyl]-4-methyl-2-(4-methylsulfonyl-phenyl)-tetrahydro-pyran] | 75 to 95 | 
CC1(S(=O)(=O)c2cccc(C(F)(F)F)c2)CCOC(c2cc(S(C)(=O)=O)ccc2C#N)C1 (stereo not shown) [SC-273, 4-Methylsulfonyl-2-[4-methyl-4-[[3-(trifluoromethyl)phenyl]sulfonyl]-tetrahydro-pyran-2-yl]-benzonitrile] | 75 to 95 | 
CC1(S(=O)(=O)c2cccc(C(F)(F)F)c2)CCOC(c2ccc(F)c(C(N)=O)c2)C1 (single isomer, unassigned) [SC-138, 2-Fluoro-5-[4-methyl-4-[[3-(trifluoromethyl)phenyl]sulfonyl]-tetrahydro-pyran-2-yl]-benzamide] |  | C (%-Inhibition >40% up to ≦75%)
CC1(S(=O)(=O)c2cccc(C(F)(F)F)c2)CCOC(c2ccc(C#N)c(S(C)(=O)=O)c2)C1 (stereo not shown) [SC-262, 2-Methylsulfonyl-4-[4-methyl-4-[[3-(trifluoromethyl)phenyl]sulfonyl]-tetrahydro-pyran-2-yl]-benzonitrile] |  | B (%-Inhibition >75% up to ≦95%)
C[S+]([O-])c1cc(Cl)ccc1C1CC(C)(S(=O)(=O)c2cccc(C(F)(F)F)c2)CCO1 (stereo not shown) [SC-288, 2-[4-Chloro-2-(methylsulfinyl)-phenyl]-4-methyl-4-[[3-(trifluoromethyl)phenyl]sulfonyl]-tetrahydro-pyran] |  | B (%-Inhibition >75% up to ≦95%)

Structure (SMILES) | inhibition at 3 µM [%] | Activity Category: %-Inhib (CaV2.2) @3 μM @30 mM KCl
CC1(c2ccc(Cl)cc2)CC(S(=O)(=O)c2cccc(C(F)(F)F)c2)CCO1 (stereo not shown) [SC-141, 2-(4-Chlorophenyl)-2-methyl-4-[[3-(trifluoromethyl)phenyl]sulfonyl]-tetrahydro-pyran] |  | A (%-Inhibition >95%)
CC1(S(=O)(=O)c2cccc(C(F)(F)F)c2)CCOC(c2ccc(S(C)(=O)=O)c(F)c2)C1 (stereo not shown) [SC-144, 2-(3-Fluoro-4-methylsulfonyl-phenyl)-4-methyl-4-[[3-(trifluoromethyl)phenyl]sulfonyl]-tetrahydro-pyran] |  | A (%-Inhibition >95%)
CC1(S(=O)(=O)c2cccc(C(F)(F)F)c2)CCOC(c2ccc(Cl)cc2S(C)(=O)=O)C1 (stereo not shown) [SC-114, 2-(4-Chloro-2-methylsulfonyl-phenyl)-4-methyl-4-[[3-(trifluoromethyl)phenyl]sulfonyl]-tetrahydro-pyran] | 75 to 95 | 
CC1(S(=O)(=O)c2cccc(OC(F)(F)F)c2)CCOC(c2ccc(S(C)(=O)=O)cc2F)C1 (stereo not shown) [SC-502, 2-(2-Fluoro-4-methylsulfonyl-phenyl)-4-methyl-4-[[3-(trifluoromethyloxy)-phenyl]sulfonyl]-tetrahydro-pyran] | > 95 | 
C[S+]([O-])c1cc(Cl)ccc1C1CC(C)(S(=O)(=O)c2cccc(C(F)(F)F)c2)CCO1 (stereo not shown) [SC-290, 2-[4-Chloro-2-(methylsulfinyl)-phenyl]-4-methyl-4-[[3-(trifluoromethyl)phenyl]sulfonyl]-tetrahydro-pyran] |  | B (%-Inhibition >75% up to ≦95%)
CC1(S(=O)(=O)c2cccc(C(F)(F)F)c2)CCOC(c2ccc(S(C)(=O)=O)cc2F)C1 (stereo not shown) [SC-241, 2-(2-Fluoro-4-methylsulfonyl-phenyl)-4-methyl-4-[[3-(trifluoromethyl)phenyl]sulfonyl]-tetrahydro-pyran] | > 95 | 
CCc1ccc(C(F)(F)F)cc1S(=O)(=O)C1CCOC(c2ccc(Cl)cc2)C1 (stereo not shown) [SC-110, 2-(4-Chlorophenyl)-4-[[2-ethyl-5-(trifluoromethyl)-phenyl]sulfonyl]-tetrahydro-pyran] |  | B (%-Inhibition >75% up to ≦95%)
CC1(S(=O)(=O)c2cccc(C(F)(F)F)c2)CCOC(c2ccc(C(F)(F)F)c(S(C)(=O)=O)c2)C1 (stereo not shown) [SC-249, 4-Methyl-2-[3-methylsulfonyl-4-(trifluoromethyl)-phenyl]-4-[[3-(trifluoromethyl)phenyl]sulfonyl]-tetrahydro-pyran] | > 95 | 
Cc1cc(Cl)ccc1C1CC(C)(S(=O)(=O)c2cccc(C(F)(F)F)c2)CCO1 (stereo not shown) [SC-225, 2-(4-Chloro-2-methyl-phenyl)-4-methyl-4-[[3-(trifluoromethyl)phenyl]sulfonyl]-tetrahydro-pyran] |  | A (%-Inhibition >95%)
C[S+]([O-])c1cc(Cl)ccc1C1CC(C)(S(=O)(=O)c2cccc(C(F)(F)F)c2)CCO1 (stereo not shown) [SC-289, 2-[4-Chloro-2-(methylsulfinyl)-phenyl]-4-methyl-4-[[3-(trifluoromethyl)phenyl]sulfonyl]-tetrahydro-pyran] |  | C (%-Inhibition >40% up to ≦75%)
CC1(S(=O)(=O)c2cccc(C(F)(F)F)c2)CCOC(c2cc(C#N)cc(S(C)(=O)=O)c2)C1 (stereo not shown) [SC-257, 3-Methylsulfonyl-5-[4-methyl-4-[[3-(trifluoromethyl)phenyl]sulfonyl]-tetrahydro-pyran-2-yl]-benzonitrile] | 75 to 95 | 
CC1(S(=O)(=O)c2cccc(OC(F)F)c2)CCOC(c2ccc(S(C)(=O)=O)cc2F)C1 (racemic) [SC-520, 4-[[3-(Difluoro-methoxy)-phenyl]sulfonyl]-2-(2-fluoro-4-methylsulfonyl-phenyl)-4-methyl-tetrahydro-pyran] | 75 to 95 | 
C[S+]([O-])c1ccc(C2CC(C)(S(=O)(=O)c3cccc(C(F)(F)F)c3)CCO2)c(F)c1 (stereo not shown) [SC-281, 2-[2-Fluoro-4-(methylsulfinyl)-phenyl]-4-methyl-4-[[3-(trifluoromethyl)phenyl]sulfonyl]-tetrahydro-pyran] |  | B (%-Inhibition >75% up to ≦95%)
CC1(c2ccc(Cl)cc2)CC(S(=O)(=O)c2cccc(C(F)(F)F)c2)CCO1 (stereo not shown) [SC-140, 2-(4-Chlorophenyl)-2-methyl-4-[[3-(trifluoromethyl)phenyl]sulfonyl]-tetrahydro-pyran] | 75 to 95 | 
CC1(S(=O)(=O)c2cccc(C(F)(F)F)c2)CCOC(c2ccc(-n3cncn3)cc2)C1 (single isomer, unassigned) [SC-135, 1-[4-[4-Methyl-4-[[3-(trifluoromethyl)phenyl]sulfonyl]-tetrahydro-pyran-2-yl]-phenyl]-1H-[1,2,4]triazole] |  | A (%-Inhibition >95%)
